From patent US20040242456A1, “Herbicidal n-alkysulfonamino derivatives” (priority 2001, published 2004)

Assays:
SETARI [1] = assay: Pre-emergence herbicidal action; assay type: in vivo, Setaria; design: key: 1=total damage; 9=no action; conditions: 250 g of active ingredient per ha, sprayed immediately after sowing, evaluated after 3 weeks; scale of nine ratings, 1 to 4 good to very good action
Description: (§1) Monocotyledonous and dicotyledonous test plants are sown in standard soil in plastic pots. Immediately after sowing, the test compounds, in the form of an aqueous suspension (prepared from a 25% wettable powder (Example F3, b) according to WO 97/34485) or in the form of an emulsion (prepared from a 25% emulsifiable concentrate (Example F1, c)), are applied by spraying, in an amount corresponding to 250 g of active ingredient per ha (500 litres of water per ha). The test plants are then grown in a greenhouse under optimum conditions. After a test duration of 3 weeks, the test is evaluated in accordance with a scale of nine ratings (1=total damage, 9=no action). Ratings of from 1 to 4 (especially from 1 to 3) indicate good to very good herbicidal action.

PANICU [2] = assay: Pre-emergence herbicidal action; assay type: in vivo; design: key: 1=total damage; 9=no action; conditions: 250 g of active ingredient per ha, sprayed immediately after sowing, evaluated after 3 weeks; scale of nine ratings, 1 to 4 good to very good action
Description: as §1

DIGITA [3] = assay: Pre-emergence herbicidal action; assay type: in vivo, Digitaria; design: key: 1=total damage; 9=no action; conditions: 250 g of active ingredient per ha, sprayed immediately after sowing, evaluated after 3 weeks; scale of nine ratings, 1 to 4 good to very good action
Description: as §1

ECHINO [4] = assay: Pre-emergence herbicidal action; assay type: in vivo, Echinochloa; design: key: 1=total damage; 9=no action; conditions: 250 g of active ingredient per ha, sprayed immediately after sowing, evaluated after 3 weeks; scale of nine ratings, 1 to 4 good to very good action
Description: as §1

ABUTIL [5] = assay: Pre-emergence herbicidal action; assay type: in vivo, Abutilon; design: key: 1=total damage; 9=no action; conditions: 250 g of active ingredient per ha, sprayed immediately after sowing, evaluated after 3 weeks; scale of nine ratings, 1 to 4 good to very good action
Description: as §1

AMARAN [6] = assay: Pre-emergence herbicidal action; assay type: in vivo, Amaranthus; design: key: 1=total damage; 9=no action; conditions: 250 g of active ingredient per ha, sprayed immediately after sowing, evaluated after 3 weeks; scale of nine ratings, 1 to 4 good to very good action
Description: as §1

CHENOP [7] = assay: Pre-emergence herbicidal action; assay type: in vivo, Chenopodium; design: key: 1=total damage; 9=no action; conditions: 250 g of active ingredient per ha, sprayed immediately after sowing, evaluated after 3 weeks; scale of nine ratings, 1 to 4 good to very good action
Description: as §1

STELLA = assay: Pre-emergence herbicidal action; assay type: in vivo, Stellaria; design: key: 1=total damage; 9=no action; conditions: 250 g of active ingredient per ha, sprayed immediately after sowing, evaluated after 3 weeks; scale of nine ratings, 1 to 4 good to very good action
Description: as §1

SETARI [8] = assay: Post-emergence herbicidal action; assay type: in vivo, Setaria; conditions: 250 g of active ingredient per ha, sprayed at 4- to 6-leaf stage, evaluated after about 18 days; scale of nine ratings, 1 to 4 good to very good action
Description: (§2) Monocotyledonous and dicotyledonous test plants are grown in standard soil in plastic pots in a greenhouse and, at the 4- to 6-leaf stage, are sprayed with an aqueous suspension of the test compounds of formula I, prepared from a 25% wettable powder (Example F3, b) according to WO 97/34485 or with an emulsion of the test compounds of formula I, prepared from a 25% emulsifiable concentrate (Example F1, c) according to WO 97/34485, in an amount corresponding to 250 g of active ingredient per ha (500 litres of water per ha). The test plants are then grown on in the greenhouse under optimum conditions. After a test duration of about 18 days, the test is evaluated in accordance with a scale of nine ratings (1=total damage, 9=no action). Ratings of from 1 to 4 (especially from 1 to 3) indicate good to very good herbicidal action.

PANICU [9] = assay: Post-emergence herbicidal action; assay type: in vivo; design: key: 1=total damage; 9=no action; conditions: 250 g of active ingredient per ha, sprayed at 4- to 6-leaf stage, evaluated after about 18 days; scale of nine ratings, 1 to 4 good to very good action
Description: as §2

DIGITA [10] = assay: Post-emergence herbicidal action; assay type: in vivo, Digitaria; design: key: 1=total damage; 9=no action; conditions: 250 g of active ingredient per ha, sprayed at 4- to 6-leaf stage, evaluated after about 18 days; scale of nine ratings, 1 to 4 good to very good action
Description: as §2

ECHINO [11] = assay: Post-emergence herbicidal action; assay type: in vivo, Echinochloa; conditions: 250 g of active ingredient per ha, sprayed at 4- to 6-leaf stage, evaluated after about 18 days; scale of nine ratings, 1 to 4 good to very good action
Description: as §2

EUPHOR = assay: Post-emergence herbicidal action; assay type: in vivo; conditions: 250 g of active ingredient per ha, sprayed at 4- to 6-leaf stage, evaluated after about 18 days; scale of nine ratings, 1 to 4 good to very good action
Description: as §2

ABUTIL [12] = assay: Post-emergence herbicidal action; assay type: in vivo, Abutilon; design: key: 1=total damage; 9=no action; conditions: 250 g of active ingredient per ha, sprayed at 4- to 6-leaf stage, evaluated after about 18 days; scale of nine ratings, 1 to 4 good to very good action
Description: as §2

AMARAN [13] = assay: Post-emergence herbicidal action; assay type: in vivo, Amaranthus; design: key: 1=total damage; 9=no action; conditions: 250 g of active ingredient per ha, sprayed at 4- to 6-leaf stage, evaluated after about 18 days; scale of nine ratings, 1 to 4 good to very good action
Description: as §2

CHENOP [14] = assay: Post-emergence herbicidal action; assay type: in vivo, Chenopodium; design: key: 1=total damage; 9=no action; conditions: 250 g of active ingredient per ha, sprayed at 4- to 6-leaf stage, evaluated after about 18 days; scale of nine ratings, 1 to 4 good to very good action
Description: as §2

| Compound | Pre-emergence action SETARI, rating (SETARI [1]) | Pre-emergence action PANICU, rating (PANICU [2]) | Pre-emergence action DIGITA, rating (DIGITA [3]) | Pre-emergence action ECHINO, rating (ECHINO [4]) | Pre-emergence action ABUTIL, rating (ABUTIL [5]) | Pre-emergence action AMARAN, rating (AMARAN [6]) | Pre-emergence action CHENOP, rating (CHENOP [7]) | Pre-emergence action STELLA, rating (STELLA) | Post-emergence action SETARI, rating (SETARI [8]) | Post-emergence action PANICU, rating (PANICU [9]) | Post-emergence action DIGITA, rating (DIGITA [10]) | Post-emergence action ECHINO, rating (ECHINO [11]) | Post-emergence action EUPHOR, rating (EUPHOR) | Post-emergence action ABUTIL, rating (ABUTIL [12]) | Post-emergence action AMARAN, rating (AMARAN [13]) | Post-emergence action CHENOP, rating (CHENOP [14]) |
| --- | --- | --- | --- | --- | --- | --- | --- | --- | --- | --- | --- | --- | --- | --- | --- | --- |
| COCCN(C1=C(C(=O)c2ccc(C(F)(F)F)nc2C)C(=O)C(C)(C)C(=O)C1(C)C)S(C)(=O)=O [Example 1.001] | 2 | 1 | 1 | 1 | 1 | 1 | 1 | 4 | 2 | 1 | 1 | 2 | 2 | 1 | 2 | 1 |
| CCS(=O)(=O)N(CCOC)C1=C(C(=O)c2ccc(C(F)(F)F)nc2C)C(=O)C(C)(C)C(=O)C1(C)C [Example 1.007] | 1 | 1 | 1 | 1 | 1 | 1 | 1 | 1 | 2 | 1 | 1 | 2 | 2 | 1 | 2 | 1 |
| COCCN(C1=C(C(=O)c2ccc(C(F)(F)F)nc2C)C(=O)C2CCC1C2)S(C)(=O)=O (stereo not shown) [Example 1.012] | 1 | 1 | 1 | 1 | 1 | 1 | – | 4 | 2 | 2 | 2 | 2 | 2 | 2 | 2 | 1 |
| CCS(=O)(=O)N(CCOC)C1=C(C(=O)c2ccc(C(F)(F)F)nc2C)C(=O)C2CCC1C2 (stereo not shown) [Example 1.013, Ethanesulfonic acid(2-methoxy-ethyl)-[3-(2-methyl-6-trifluoromethyl-pyridine-3-carbonyl)-4-oxo-bicyclo[3.2.1]oct-2-en-2-yl]-amide] | 1 | 1 | 1 | 1 | 1 | 1 | 1 | 1 | 2 | 1 | 2 | 2 | 2 | 2 | 1 | 1 |
| COCCN(C1=C(C(=O)c2ccc(C(F)(F)F)nc2C)C(=O)C2CCC1C2)S(=O)(=O)c1ccccc1 (stereo not shown) [Example 1.027] | 2 | 2 | 2 | 3 | 3 | 2 | 9 | 9 | – | – | – | – | – | – | – | – |
| CCS(=O)(=O)N(Cc1ccccc1)C1=C(C(=O)c2ccc(C(F)(F)F)nc2C)C(=O)C2CCC1C2 (stereo not shown) [Example 1.065] | 1 | 1 | 1 | 1 | 1 | 2 | 2 | 1 | 5 | 2 | 2 | 3 | 3 | 2 | 2 | 1 |
| Cc1nc(C(F)(F)F)ccc1C(=O)C1=C(N(Cc2ccccc2)S(=O)(=O)C(C)C)C2CCC(C2)C1=O (stereo not shown) [Example 1.067] | 1 | 1 | 1 | 2 | 2 | 2 | 1 | 1 | – | – | – | – | – | – | – | – |
| Cc1nc(C(F)(F)F)ccc1C(=O)C1=C(N(Cc2ccccc2)S(=O)(=O)c2ccccc2)C2CCC(C2)C1=O (stereo not shown) [Example 1.079] | 6 | 1 | 3 | 2 | 4 | 3 | 2 | 2 | – | – | – | – | – | – | – | – |
